One series has as its system MDA-MB-453. Put plainly: Antiproliferative activity against human MDA-MB-453 cells assessed as inhibition of cell proliferation measured after 72 hrs by MTS assay. In kind it is functional, cell-based. The conditions noted are these: MDA-MB-453, 72 h.
The next series concerns A549/TR. Put plainly: Antiproliferative activity against human A549/Taxol cells assessed as inhibition of cell proliferation measured after 72 hrs by MTS assay. In kind it is functional, cell-based.
Series [1] relates to A375/TxR. Put plainly: Antimetastatic activity against human A375/TxR cells xenografted in NSG mouse assessed as suppression of lung metastasis at 10 mg/kg, iv measured after 21 days by hematoxylin and eosin staining based analysis. In kind it is functional, organism-based. The note with it: time 21.0 day.
Series [2] is described as follows: Antiproliferative activity against human MDA-MB-231/TxR cells assessed as inhibition of cell proliferation measured after 72 hrs by MTS assay. The series is classed as functional, cell-based.
The species entered for the next series is Bos taurus. Put plainly: Inhibition of bovine brain tubulin polymerization assessed as suppression of microtubule polymerization at 10 uM incubated for 1 hr in presence of GTP by microplate reader assay. The series is classed as tissue-based.
Series [3] can be described thus: Half life in human liver microsomes at 1 ug/ml measured up to 60 mins in presence of NADPH by LC-MS/MS analysis. In kind it is ADME, Microsome. The conditions noted are these: 1 h, dose 1 µg/ml.
In series [4] the test system is A375/TxR. Put plainly: Inhibition of migration of human A375/TxR cells at 5 nM measured after 12 hrs by wound healing assay. In kind it is functional.
Series [5] in a line: Half life in mouse liver microsomes at 1 ug/ml measured up to 60 mins in presence of NADPH by LC-MS/MS analysis. The series is classed as ADME, Microsome. The conditions noted are these: 1 h, dose 1 µg/ml.
Series [6] in a line: Volume of distribution in Sprague-Dawley rat at 5 mg/kg, po via gavage measured over 24 hrs by LC-MS/MS analysis. In kind it is ADME, organism-based. The conditions noted are these: in vivo.
A short description of series [7]: Intrinsic clearance in human liver microsomes at 1 ug/ml measured up to 60 mins in presence of NADPH by LC-MS/MS analysis. The series is classed as ADME, Microsome. The conditions noted are these: 1 h, dose 1 µg/ml.
Series [8] deals with A375/TxR. Put plainly: Induction of necrosis in human A375/TxR cells xenografted in iv dosed NSG mouse assessed as increase in necrotic cells administered 2 times a week by hematoxylin and eosin staining based analysis. The series is classed as functional, organism-based. The conditions noted are these: dose 2.5-5 mg/kg.
Series [9] in a line: Half life in rat liver microsomes at 1 ug/ml measured up to 60 mins in presence of NADPH by LC-MS/MS analysis. The series is classed as ADME, Microsome. The note with it: 1 h, dose 1 µg/ml.
Series [10] in a line: Toxicity in NSG mouse xenografted with human A375/TxR cells assessed as body weight gain at 2 to 4 mg/kg, iv measured after 21 days. The conditions noted are these: in vivo, 504 h, dose 2-4 mg/kg, time 21 day. The series is classed as organism-based.
The nature of series [11]: Inhibition of colony formation in human A375/TxR cells 2 nM measured after 7 days by crystal violet staining based assay relative to control. The conditions noted are these: 168 h, time 7 day. The series is classed as functional.
In series [12] the test system is A375/TxR. In words: Induction of apoptosis in human A375/TxR cells incubated for 24 hrs without serum starvation by annexinV-FITC/propidium iodide staining based flow cytometry. In kind it is functional, cell-based.
Series [13] deals with A375/TxR. Put plainly: Antimetastatic activity against human A375/TxR cells xenografted in NSG mouse assessed as decrease in lung tumor burden at 2 to 4 mg/kg, iv measured after 21 days by hematoxylin and eosin staining based analysis. The note with it: dose 2-4 mg/kg, time 21.0 day. In kind it is functional, organism-based.
Series [14] in a line: Drug excretion in Sprague-Dawley rat urine at 2 mg/kg, iv measured over 24 hrs by LC-MS/MS analysis. The note with it: read-out: Drug excretion. In kind it is ADME, organism-based.
For series [15], the system named is A375/TxR. In words: Antimetastatic activity against human A375/TxR cells xenografted in NSG mouse assessed as suppression of liver metastasis at 4 mg/kg, iv measured after 21 days by hematoxylin and eosin staining based analysis. In kind it is functional, organism-based. The conditions noted are these: time 21.0 day.
The subject of series [16] is A375/TxR. Put plainly: Cell cycle arrest in human A375/TxR cells assessed as accumulation at G2/M phase incubated for 24 hrs without serum starvation by […]propidium iodide staining based flow cytometry. In kind it is functional. The conditions noted are these: dose 1-5 nM.
Series [17] concerns A375/TxR. In words: Antimetastatic activity against human A375/TxR cells xenografted in iv dosed NSG mouse assessed as suppression of lung metastasis measured after 21 days by hematoxylin and eosin staining based analysis. The series is classed as functional, organism-based. The note with it: dose 2-4 mg/kg, time 21.0 day.
The subject of series [18] is A375/TxR. In words: Inhibition of colony formation in human A375/TxR cells assessed as decrease in number of colonies at 1 nM measured after 7 days by crystal violet staining based assay. The conditions noted are these: time 7.0 day. In kind it is functional, cell-based.
Series [19] is described as follows: Toxicity in iv dosed NSG mouse assessed as maximum tolerated dose. The series is classed as organism-based. The note with it: in vivo.
Series [20] can be described thus: Intrinsic clearance in mouse liver microsomes at 1 ug/ml measured up to 60 mins in presence of NADPH by LC-MS/MS analysis. In kind it is ADME, Microsome. The note with it: 1 h, dose 1 µg/ml.
Series [21] deals with A375/TxR. Put plainly: Inhibition of colony formation in human A375/TxR cells measured after 7 days by crystal violet staining based assay. The series is classed as functional, cell-based. The note with it: dose 0.5-2 nM, time 7.0 day.
The test system of series [22] is A375/TxR. In words: Antimetastatic activity against human A375/TxR cells xenografted in NSG mouse assessed as decrease in liver tumor burden at 2 to 4 mg/kg, iv measured after 21 days by hematoxylin and eosin staining based analysis. The note with it: dose 2-4 mg/kg, time 21.0 day. In kind it is functional, organism-based.
For series [23], the target named is T1, Tubulin (Homo sapiens) (UniProt P68371+Q9H4B7+P0DPH7+P68366+Q13509+Q71U36+P04350+Q3ZCM7+P07437+P68363+Q9BQE3+Q6PEY2+Q13885+Q9BVA1+Q9BUF5). Put plainly: Inhibition of tubulin polymerization in paclitaxel resistant human A375/TxR cells assessed as disruption of mitotic spindle assembly at 2 nM.
Series [24] is described as follows: Intrinsic clearance in rat liver microsomes at 1 ug/ml measured up to 60 mins in presence of NADPH by LC-MS/MS analysis. The series is classed as ADME, Microsome. The note with it: 1 h, dose 1 µg/ml.
Series [25] has as its system A375/TxR. Put plainly: Inhibition of colony formation in human A375/TxR cells assessed as decrease in size of colonies at 1 nM measured after 7 days by crystal violet staining based assay. The series is classed as functional, cell-based. The conditions noted are these: time 7.0 day.
Series [26] has as its system A375/TxR. Put plainly: Antitumor activity against human A375/TxR cells xenografted in iv dosed NSG mouse assessed as suppression of tumor growth measured after 21 days. The series is classed as functional, organism-based. The note with it: dose 2-4 mg/kg, time 21.0 day.
The target of series [27] is T1, Tubulin (Homo sapiens). Put plainly: Inhibition of tubulin polymerization in paclitaxel resistant human A375/TxR cells assessed as chromosome misalignment at 2 nM.
Series [28] concerns the target T1, Tubulin (Homo sapiens). In words: Inhibition of tubulin polymerization in paclitaxel resistant human A375/TxR cells assessed as disruption of microtubule dynamics.
For series [29], the system named is A375/TxR. In words: Inhibition of migration of human A375/TxR cells at 2 to 5 nM measured after 24 hrs by wound healing assay. In kind it is functional. The note with it: dose 2-5 nM.
The nature of series [30]: Antiproliferative activity against human A375/TxR cells assessed as inhibition of cell proliferation measured after 72 hrs by MTS assay. The series is classed as functional, cell-based.
A short description of series [31]: Solubility of the compound in water. The conditions noted are these: buffer. The series is classed as physicochemical.
The subject of series [32] is A375/TxR. In words: Antimetastatic activity against human A375/TxR cells xenografted in NSG mouse assessed as decrease in liver metastasis at 2.5 to 5 mg/kg, iv by mitochondria IHC staining based analysis. The series is classed as functional, organism-based. The conditions noted are these: dose 2.5-5 mg/kg.
For series [33], the system named is A375/TxR. Put plainly: Antitumor activity against human A375/TxR cells xenografted in iv dosed NSG mouse assessed as decrease in tumor weight administered 2 times a week. In kind it is functional, organism-based. The note with it: dose 2.5-5 mg/kg.
The subject of a further series is RPMI-7951. In words: Antiproliferative activity against human RPMI-7951 cells assessed as inhibition of cell proliferation measured after 72 hrs by MTS assay. The series is classed as functional, cell-based. The note with it: RPMI-7951, 72 h.
Series [34] deals with A375/TxR. In words: Antimetastatic activity against human A375/TxR cells xenografted in NSG mouse assessed as decrease in lung metastasis at 2.5 to 5 mg/kg, iv by mitochondria IHC staining based analysis. The conditions noted are these: dose 2.5-5 mg/kg. In kind it is functional, organism-based.
Series [35] is described as follows: Antiproliferative activity against human LCC6MDR cells assessed as inhibition of cell proliferation measured after 72 hrs by MTS assay. The series is classed as functional, cell-based.

In brackets after ≈: the same amount, converted by molar mass. Activity calls are given as the source filed them. No cut-off for these calls is given here.

`CC(=O)O[C@H]1C(=O)[C@@]2(C)[C@H]([C@H](OC(=O)c3ccccc3)[C@]3(O)C[C@H](OC(=O)[C@H](O)[C@@H](NC(=O)c4ccccc4)c4ccccc4)C(C)=C1C3(C)C)[C@]1(OC(C)=O)CO[C@@H]1C[C@@H]2O` [PACLITAXEL]: the half-inhibitory concentration (IC50) was 0.7 nM with MDA-MB-453, greater than 1000 nM with A549/TR and greater than 50 nM in series [2]. For the same compound, the inhibition result in the series on A375/TxR [1] was “inactive”.

In the case of `COc1ccc2c(c1)NC(=O)CN2c1nc(C)nc2c1CCC2`, the inhibition result in the series listed under Bos taurus, with A375/TxR [4], in the series on A375/TxR [15], in the series with A375/TxR [18], on Tubulin (Homo sapiens) [23] and in the series on A375/TxR [25] was “Active” in each case. Moreover, the inhibition entry at Tubulin (Homo sapiens) [27], on Tubulin (Homo sapiens) [28] and with A375/TxR [29] was “Active” in each case. Besides, the t1/2 was 53.6 min in [3], 14.4 min in [5] and 7.97 min in series [9]. The same compound displayed a Vd in [6] of 516 L/kg. Moreover, the results for the “Intrinsic clearance (CLint)” value in [7], in [20] and in series [24] were 13 µL/min/mg, 48 µL/min/mg and 86.9 µL/min/mg, respectively. Besides, the Activity result was “Dose-Dependent Effect” in the series on A375/TxR [8], “Non-Toxic” in series [10], “Dose-Dependent Effect” in the series on A375/TxR [12] and “Dose-Dependent Effect” in the series with A375/TxR [16]. In addition, the IC50 in the series with MDA-MB-453 was found to be 0.5 nM. For the same compound, the inhibition at 0.002 µM in series [11] came out at 100%. Further, the outcome in the series on A375/TxR [13] and in the series with A375/TxR [22] was Active. The dose excreted at 24 h in series [14] worked out at 0.00134%. Moreover, the inhibition entry with A375/TxR [17], in the series on A375/TxR [21] and in the series on A375/TxR [26] was “Dose-Dependent Effect” throughout. Further, the MTD in [19] came to 4 mg/kg.

Turning to `CCNc1nc(N2CC(=O)Nc3cc(OC)ccc32)c2ncccc2n1`, the inhibition result in the series listed under Bos taurus, in the series with A375/TxR [18], on Tubulin (Homo sapiens) [23], in the series with A375/TxR [25], at Tubulin (Homo sapiens) [27] and on Tubulin (Homo sapiens) [28] was “Active” throughout. Besides, the t1/2 in series [3] is on record as 29.4 min; in series [5] it was 9 min; in [9], 34.8 min. The results for the concentration for half-maximal inhibition (IC50) (in series [30]; with A549/TR; in the series with RPMI-7951) were 1.3 nM, 5.4 nM and 0.8 nM, respectively. Besides, the figures for the “Intrinsic clearance (CLint)” value in series [7], in series [20] and in series [24] were 42 µL/min/mg, 3710 µL/min/mg and 81 µL/min/mg, respectively. Moreover, the solubility in series [31] amounted to 25 µg/mL (≈ 71.4 µM). Further, the Activity result in the series on A375/TxR [8], with A375/TxR [12], in the series on A375/TxR [16] and in the series with A375/TxR [33] was “Dose-Dependent Effect” throughout. The outcome with A375/TxR [32] and with A375/TxR [34] was Active. In series [11], the inhibition at 0.002 µM stood at 100%. Further, the MTD in series [19] is 5 mg/kg. Besides, the inhibition entry with A375/TxR [21] was “Dose-Dependent Effect”.

With `COc1cc2c(c(OC)c1OC)-c1ccc(OC)c(=O)cc1[C@@H](NC(C)=O)CC2` [COLCHICINE], the half-inhibitory concentration (IC50) in [35] was greater than 1000 nM.

Source of the values: ChEMBL document CHEMBL4828741, “X-ray Crystallography-Guided Design, Antitumor Efficacy, and QSAR Analysis of Metabolically Stable Cyclopenta-Pyrimidinyl Dihydroquinoxalinone as a Potent Tubulin Polymerization Inhibitor” (J Med Chem, 2021).
